In brackets after ≈: the same amount, converted by molar mass. Where two headings read alike, the source gives them in different places.
What was measured:
HepG2 cells = tested on: HepG2 cells; design: method as in PMID 28827774, PMID 30192536; details: previous work ref [42], [53]; read-out: IC50 against HepG2 cells; cited from earlier work
S. schleiferi DXR enzyme = S. schleiferi DXR enzyme (Staphylococcus schleiferi, UniProt A0ABF7SXB4); test: S. schleiferi DXR enzyme activity and inhibition (NADPH oxidation at 340 nm); format: biochemical
Method: (§1) . The sequence was confirmed by Sanger sequencing and the plasmid was transformed into E. coli BL21(DE3) pLysS (Life Technologies). Gene expression was induced for 2 h with 1 mM isopropyl-β-D-thiogalactoside (IPTG) and cells were harvested by centrifugation at 4274 x g for 10 min at 4°C. The cell pellet was lysed by sonication in lysis buffer containing 25 mM Tris HCl (pH 7.5), 100 mM NaCl, 20 mM imidazole, 10% glycerol, 1 mM MgCl2, 1 mM dithiothreitol (DTT), 1 mg/mL lysozyme, 75 U benzonase and 1 Complete Mini EDTA-free protease inhibitor tablet (Roche Applied Science). The hexahistidine-tagged DXR protein was affinity purified from soluble lysate via nickel agarose beads (Gold Biotechnology). Bound protein was eluted in 300 mM imidazole, 25 mM Tris HCl (pH 7.5), 1 mM MgCl2 and 100 mM NaCl. Purified protein was dialyzed in buffer containing 10% glycerol without imidazole prior to analysis. The enzyme was frozen in liquid nitrogen and stored permanently at -80°C.
Oxidation of NADPH to NADP^+ as a result of substrate turnover was monitored at 340 nm in a POLARstar Omega microplate reader (BMG Labtech)[73]. […] Reactions were initiated by the addition of DOXP after 15 min incubation of the reaction mixture without DOXP at 37°C. Absorption at 340 nm was measured continuously for up to 45 min. For Km [DOXP] determination, DOXP concentrations between 0 and 2 mM were tested at 0.5 mM NADPH. The linear range of enzyme activity was determined by varying the DXR concentration at 1 mM DOXP and 1 mM NADPH. IC50 assays were performed using the standard reaction conditions with the respective amount of DXR inhibitor added to obtain the given final concentrations. Data points from at least three independent replicates were analyzed by nonlinear regression using GraphPad Prism software. Slopes of changing absorbance values were converted to (μM DOXP)(mg enzyme)^-1 s ^-1 using a NADPH standard curve (data not shown). For the determination of the inhibitory constant Ki [FSM] of DXR, enzyme activity over a range of DOXP substrate concentrations between 0 and 2 mM was measured for FSM between 0 mM to 4 mM. Data points from at least three independent replicates were analyzed as described above.

S. aureus = test: Growth inhibition assay of Staphylococcus species (OD600, 20 h); details: for IC50: Staphylococcus aureus, read-out: S. aureus IC50
Method: (§2) Overnight cultures were diluted 1:200 in LB media and grown at 37°C until the mid-logarithmic phase (OD600 = 0.5–0.8). Cultures were diluted in a 96-well plate to 1 x 10^5 in 150 μL LB media and treated with inhibitors at concentrations ranging from 2 nM to 100 μM. Bacteria were grown at 37°C for 20 h with cyclic shaking at 700 rpm in a FLUOstar Omega microplate reader (BMG Labtech). Growth was assessed over 20 h by measuring the OD600 at 20 min increments. The half-maximal inhibitory concentration (IC50) values were determined during logarithmic growth using GraphPad Prism software. All experiments were performed at least in triplicate and data reported represent the mean ± SEM.

S. schleiferi [1] = test: MIC by microtiter broth dilution, wild-type and FSM-resistant strains
Method: (§3) Minimum Inhibitory Concentration (MIC) assays were conducted by microtiter broth dilution in clear 96-well plates[78]. MEPicides were serially diluted in duplicate at concentrations ranging from 1.5 mM– 19.5 nM in 75 μL of LB broth. Bacteria cultured without drug were used as a positive control for growth. The plates were inoculated with 75 μL bacteria diluted to 1 x 10^5 CFU/mL in LB. Plates were incubated for 18–20 h while shaking at 200 RPM at 37°C. The plates were then visually inspected, and the MIC value was defined as the lowest concentration of MEPicide that prevented visual growth.

S. schleiferi [2] = test: Growth inhibition assay of Staphylococcus species (OD600, 20 h); details: read-out: S. schleiferi IC50
Method: as §2

S. pseudintermedius [3] = test: as above; details: read-out: S. pseudintermedius IC50
Method: as §2

S. pseudintermedius [4] = test: Minimum bactericidal (MBC) assay, CFU after 24 h; details: 1 x and 10 x IC50, 24 h, CFU/mL
Method: (§4) Overnight cultures were diluted 1:200 in LB media and grown at 37°C until reaching mid-logarithmic phase of growth. […] Cultures were serially diluted in 1 X Dulbecco’s Phosphate Buffered Saline (PBS; Gibco) and plated on LB agar. Colonies were enumerated after overnight growth at 37°C. Values reflect the mean and standard deviations of at least three independent experiments.
(§5) Growth in CFU/mL of S. schleiferi and S. pseudintermedius after 24 h treatment is plotted against the respective treatment. Cultures were treated at 1 x IC50 concentration and/or 10x IC50 concentration of the inhibitors. Shown are the mean values + SD from at least three independent experiments.

S. schleiferi [5] = test: Minimum bactericidal (MBC) assay, CFU after 24 h; details: 1 x and 10 x IC50, 24 h, CFU/mL
Method: as §4, §5

[6] = tested on: Burkholderia thailandensis; test: microbe, parasite or virus in culture; format: cell-based; details: read-out: Burkholderia thailandensis IC50
S. pseudintermedius [7] = test: MIC by microtiter broth dilution, wild-type and FSM-resistant strains
Method: as §3

Escherichia coli = test: microbe, parasite or virus in culture; format: cell-based; details: Escherichia coli; BW25113; mean ± SD
Salmonella typhimurium = test: Growth inhibition assay for Gram-negative bacteria; format: cell-based; details: Salmonella enterica, strain 04-018-0254, mean ± SD
Klebsiella pneumoniae = test: Growth inhibition assay for Gram-negative bacteria; format: cell-based; details: Klebsiella pneumoniae, ATCC43816; ATCC 43816; mean ± SD
MEP pathway [8] = test: Targeted LC-MS/MS profiling of MEP pathway intermediates; details: FSM at 10x IC50, 2 h, vs untreated
Method: (§6) MEP pathway metabolites were compared between untreated (UNT) S. schleiferi (A) and S. pseudintermedius (B) and bacteria treated with FSM at 10x the respective IC50 values. After 2 h treatment, bacterial cells were harvested and the cell pellets analyzed by LC-MS/MS. […] P-values were determined using a Student’s t-test.
(§7) Overnight cultures of Staphylococcus spp. were diluted 1:200 in LB media and grown at 37°C until reaching mid-logarithmic phase. Cultures were then treated for 2 h with FSM at 10x their IC50 while shaking at 37°C. For normalization, the OD600 was determined after 2 h of treatment with the DXR inhibitors. Cells were pelleted by centrifugation for 5 min at 3000 x g at 4°C. The supernatants were removed and cells were washed twice with 1 x PBS (Gibco). The supernatants were removed and the pellets stored at -80°C until analysis. MEP intermediates were extracted from the samples using glass beads (212–300 u) and 600 μL chilled H2O: chloroform: methanol (3:5:12 v/v) spiked with PIPES (piperazine-N,N′-bis(2-ethanesulfonic acid) as internal standard. The cells were disrupted with the TissueLyser II instrument (Qiagen) using a microcentrifuge tube adaptor set pre-chilled for 2 min at 20 Hz. The samples were then centrifuged at 16,000 x g at 4°C for 10 min, the supernatants collected, and pellet extraction repeated once more. The supernatants were pooled and 300 μL chloroform and 450 μL of chilled water were added to the supernatants. The tubes were vortexed and centrifuged. The upper layer was transferred to a 2 mL tube PVDF filter (ThermoFisher, F2520-5) and centrifuged for 5 min at 4,000 x g at 4°C. The samples were transferred to new tubes and dried using a speed-vac. […]
(§8) For LC separation, Luna-NH2 column (3 μm, 150 x 2 mm, Phenomenex) was used flowing at 0.4 mL/min. […] The metabolites were detected using MRM transitions that were previously optimized using standards. […] For quantification, an external standard curve was prepared using a series of standard samples containing different concentrations of metabolites and a fixed concentration of the internal standard. […]

Serratia marcescens = test: Growth inhibition assay for Gram-negative bacteria; format: cell-based; details: strain 137.01, mean ± SD
Shigella sonnei = test: microbe, parasite or virus in culture; format: cell-based; details: mean ± SD
MEP pathway [9] = test: Targeted LC-MS/MS profiling of MEP pathway intermediates; details: FSM at 10x IC50, 2 h, vs untreated; remark: listed apart in the source
Method: as §6, §7, §8

[10] = substrate: CC(=O)[C@@H](O)[C@H](O)COP(=O)(O)O; test: S. schleiferi DXR enzyme activity and inhibition (NADPH oxidation at 340 nm); format: biochemical; details: other: 0.5 mM NADPH; pH 7.5; 37.0 °C
Method: as §1, with “Bound protein was eluted in 300 mM imidazole, 25 mM Tris HCl (pH 7.5), 1 mM MgCl2 and 100 mM NaCl. Purified protein was dialyzed in buffer containing 10% glycerol without imidazole prior to analysis. The enzyme was frozen in liquid nitrogen and stored permanently at -80°C.” left out
Oxidation of NADPH to NADP^+ as a result of substrate turnover was monitored at 340 nm in a POLARstar Omega microplate reader (BMG Labtech)[73]. […] Absorption at 340 nm was measured continuously for up to 45 min. […] The linear range of enzyme activity was determined by varying the DXR concentration at 1 mM DOXP and 1 mM NADPH. […] Data points from at least three independent replicates were analyzed by nonlinear regression using GraphPad Prism software. Slopes of changing absorbance values were converted to (μM DOXP)(mg enzyme)^-1 s ^-1 using a NADPH standard curve (data not shown). […] Data points from at least three independent replicates were analyzed as described above.

[11] = purified recombinant enzyme, mean ± SEM, read-out: S. schleiferi DXR enzyme IC50

CC(C)(C)C(=O)OCOP(=O)(/C=C/CN(O)C=O)OCOC(=O)C(C)(C)C [Compound 4]
IC50 (HepG2 cells): > 50000 nM | inhibition of purified recombinant S. schleiferi DXR in vitro (S. schleiferi DXR enzyme; prodrug, uncleaved): poorly inhibit | IC50 (S. schleiferi DXR enzyme; [11]): 12600 ± 1980 nM | IC50 (S. aureus): > 90000 nM | sensitivity of FSM^R glpT mutant S. schleiferi strains (MIC fold change vs WT) (S. schleiferi [1]; strains 3408, 4494, 7376, 8400): remain sensitive | IC50 (S. schleiferi [2]): 30 nM | IC50 (S. pseudintermedius [3]): 210 ± 40 nM

CC(=O)N(O)CCCP(=O)(O)O [FR-900098]
IC50 (S. schleiferi DXR enzyme): 1000 ± 180 nM | mechanism-of-action on viable cells (S. pseudintermedius [4]): bacteriostatic | inhibition of S. aureus growth (S. aureus): neither FSM nor FR-900098 inhibit S. aureus growth | IC50 (S. aureus): > 100000 nM | mechanism-of-action on viable cells (S. schleiferi [5]): bacteriostatic | IC50 (S. schleiferi [2]): 41100 ± 6650 nM | IC50 (S. pseudintermedius [3]): 34100 ± 6540 nM

O=CN(O)CCCP(=O)(O)O [FSM, fosmidomycin]
IC50 [6]: > 100000 nM | Ki (S. schleiferi DXR enzyme; competitive with respect to the DOXP substrate): 290 ± 22 nM | IC50 (S. schleiferi DXR enzyme; [11]): 670 ± 60 nM | mode of DXR inhibition (S. schleiferi DXR enzyme; with respect to the DOXP substrate): competitive | MIC (S. pseudintermedius [7]; read-out: FSM MIC, Parental S. pseudintermedius): 25.9 µM (≈ 4.74 µg/mL) | MIC (S. pseudintermedius [7]; read-out: FSM MIC, strain SPSE0643, GlpT W301X): 1120 µM (≈ 206 µg/mL) | MIC (S. pseudintermedius [7]; read-out: FSM MIC, strain SPSE1933, GlpT G99E): 875 µM (≈ 160 µg/mL) | MIC (S. pseudintermedius [7]; read-out: FSM MIC, strain SPSE2052, GlpT D88Y): 1120 µM (≈ 206 µg/mL) | MIC (S. pseudintermedius [7]; read-out: FSM MIC, strain SPSE2227, GlpT G135D): 1120 µM (≈ 206 µg/mL) | MIC (S. pseudintermedius [7]; read-out: FSM MIC, strain SPSE2648, GlpT G99E): 1000 µM (≈ 183 µg/mL) | MIC (S. pseudintermedius [7]; read-out: FSM MIC, strain SPSE5869, GlpT G135V): 938 µM (≈ 172 µg/mL) | MIC (S. pseudintermedius [7]; read-out: FSM MIC, strain SPSE6794, GlpT G99E): 1250 µM (≈ 229 µg/mL) | MIC (S. pseudintermedius [7]; read-out: FSM MIC, strain SPSE6909, GlpT G404D): 688 µM (≈ 126 µg/mL) | MIC (S. pseudintermedius [7]; read-out: FSM MIC, strain SPSE7104, GlpT G99E): 1250 µM (≈ 229 µg/mL) | MIC (S. pseudintermedius [7]; read-out: FSM MIC, strain SPSE7724, GlpT G400C): 1120 µM (≈ 206 µg/mL) | MIC (S. pseudintermedius [7]; read-out: FSM MIC, strain SPSE8628, no GlpT change): 1060 µM (≈ 195 µg/mL) | MIC (S. pseudintermedius [7]; read-out: FSM MIC, strain SPSE9765, no GlpT change): 1250 µM (≈ 229 µg/mL) | mechanism-of-action on viable cells (S. pseudintermedius [4]): bacteriostatic | IC50 (Escherichia coli): 290 ± 80 nM | inhibition of S. aureus growth (S. aureus): neither FSM nor FR-900098 inhibit S. aureus growth | IC50 (S. aureus): > 100000 nM | IC50 (Salmonella typhimurium): 230 ± 30 nM | IC50 (Klebsiella pneumoniae): 810 ± 560 nM | increase of intracellular DOXP level (MEP pathway [8]): 23.8 fold | reduction of intracellular CDP-ME level (MEP pathway [8]): 5.5 fold | reduction of intracellular MEcPP level (MEP pathway [8]): 4.5 fold | IC50 (Serratia marcescens): 390 ± 20 nM | IC50 (Shigella sonnei): 1160 ± 690 nM | MIC (S. schleiferi [1]; read-out: FSM MIC, Parental S. schleiferi): 19.8 µM (≈ 3.63 µg/mL) | MIC (S. schleiferi [1]; read-out: FSM MIC, strain SSCH1903, GlpT G99X): 719 µM (≈ 132 µg/mL) | MIC (S. schleiferi [1]; read-out: FSM MIC, strain SSCH3408, GlpT A267E): 500 µM (≈ 91.6 µg/mL) | MIC (S. schleiferi [1]; read-out: FSM MIC, strain SSCH3612, GlpT G99V): 688 µM (≈ 126 µg/mL) | MIC (S. schleiferi [1]; read-out: FSM MIC, strain SSCH3624 (second line), GlpT A309S): 562 µM (≈ 103 µg/mL) | MIC (S. schleiferi [1]; read-out: FSM MIC, strain SSCH3624, GlpT G99V): 688 µM (≈ 126 µg/mL) | MIC (S. schleiferi [1]; read-out: FSM MIC, strain SSCH3717, no GlpT change): > 1500 µM | MIC (S. schleiferi [1]; read-out: FSM MIC, strain SSCH4455, GlpT G298X): > 1500 µM | MIC (S. schleiferi [1]; read-out: FSM MIC, strain SSCH4494, GlpT G99X): 750 µM (≈ 137 µg/mL) | MIC (S. schleiferi [1]; read-out: FSM MIC, strain SSCH7376, GlpT W148C): 438 µM (≈ 80.1 µg/mL) | MIC (S. schleiferi [1]; read-out: FSM MIC, strain SSCH8400, GlpT W161L): 469 µM (≈ 85.8 µg/mL) | MIC (S. schleiferi [1]; read-out: FSM MIC, strain SSCH8586, GlpT G99E): > 1500 µM | MIC (S. schleiferi [1]; read-out: FSM MIC, strain SSCH8774, GlpT Q379P): > 1500 µM | mechanism-of-action on viable cells (S. schleiferi [5]): bacteriostatic | IC50 (S. schleiferi [2]): 780 ± 130 nM | increase of intracellular DOXP level (MEP pathway [9]): 34.8 fold | reduction of intracellular CDP-ME level (MEP pathway [9]): 2.6 fold | reduction of intracellular MEcPP level (MEP pathway [9]): 2.4 fold | IC50 (S. pseudintermedius [3]): 310 ± 40 nM

B1: S. schleiferi DXR enzyme (Staphylococcus schleiferi) (protein)
chain: MKNIAILGASGSIGQQAIDVIARHPESFNLISFTVGKNIEFAIEVIEKFKPEIVSVQDEADVERLKPYHSNIVSGRQGLIDVSTYEKNDLVLNALLGSVGLEPTMKAIEAGKNIALANKETLVVAGKLVMTHAKRYGVDILPVDSEHAAIFQCLNGEDMHKIKNVTITASGGSFRELTREQLEHVTVGDALNHPNWSMGNKITIDSATMMNKGFEVIEAKWLFDLKIDQIKTILHKESIIHSLVEFVDTSVMAQLGTPDMRMPIQYAFTYPERIEHRAPSLDLVQVAQLHFQEMDLDRYRCLKFAYDALRIGGSMPVVLNAVNEVAVAKFLNHEITFLEIEHMIEREMSAHEVIPDPSLEEILEIDHYYKTKSYEV
Km [10]: 520 ± 80 µM

From publication PMC7297381, “Potent, specific MEPicides for treatment of zoonotic staphylococci” (PLoS Pathogens, 2020)
